Assay results published in patent US20170042899A1, “Use of Tetrahydrobiopterine Derivatives in the Treatment and Nutrition of Patients With Amino Acid Metabolic Disorders” (BioMarin Pharmaceutical Inc., priority 2002, published 2017).

Assays:
[1] = system: patients with a lack of tetrahydrobiopterine; settings: more than 350 patients with a lack of tetrahydrobiopterine treated with the co-factor; cited from earlier work
[2] = system: children with mild phenylketonurea; assay: Long time treatment with tetrahydrobiopterine replacing the phenylalanine poor diet; type: in vivo, human; settings: five children
Method: The families with five children aged from 4 to 14 years with mild phenylketonurea consented to a therapeutic test, in which the phenylalanine poor diet was replaced by an oral administration of tetrahydrobiopterine in daily doses between 7.1 and 10.7 mg/kg body weight. The treatment lasted 207±51.3 days (average±SD; length 166-263).

Serum residence time = settings: in vivo
[3] = system: persons with a deficiency in phenylalanine hydroxylase; assay: Combined phenylalanine and tetrahydrobiopterine exposure or stress test (phenylalanine concentration in blood); type: in vivo, human; settings: for patients with a response to tetrahydrobiopterine: blood phenylalanine sank by at least 30% 15 hours after exposure
Excerpt: In order to research the therapeutic effectiveness of tetrahydrobiopterine, one carries out a combined phenylalanine tetrahydrobiopterine stress test for diagnostic and analyzes the effect in vivo by means of determining the [^13C] phenylalanine oxidation rate and 38 persons with a deficiency in phenylalanine hydroxylase prior to and subsequent to the administration of tetrahydrobiopterine derivatives. The response to tetrahydrobiopterine was associated with certain genotypes, and we localized mutations on the basis of the structural models of the phenylalanine hydroxylase monomer and the therefrom derived protein misfolding. We obtained the written consent of the families of 38 children, which suffered from various subset forms of hyperphenylalaninamie. The classification occurred depending upon the plasma phenylalanine concentration prior to treatment: less than 600 μmol/l, mild hyperphenylalaninamie, n=10, age 15 days through 10 years; 600-1200 μmol/l, mild, n=21, age 8 days through 17 years; greater than 1200 μmol, classical phenylketonurea, n=7, age 1 day through 9 years. A defect in this tetrahydrobiopterine biosynthesis or in the recycling of the tetrahydrobiopterine was ruled out by an analysis of the pterine value in urine and the dihydropteridine-reductase activity in erythrocytes. We examined seven patients during the newborn period and 31 as they were already older. Afflicted siblings (n=5) were likewise included in the study, since it is known that non-genetic factors influence the phenylalanine homeostasis. The uptake of phenylalanine was accomplished in that the patients were allowed to take a meal with 100 mg phenylalanine per kilogram body weight. One hour after the end of the meal the patients took 20 mg tetrahydrobiopterine per kilogram (Schircks Laboratories, Jona, Switzerland). The phenylalanine concentration in blood was determined by an electro spray ionization tandem mass spectroscopy—prior to the uptake of phenylalanine and prior to and subsequent to (at 4, 8 and 15 hours) provocation or exposure to tetrahydrobiopterine. During the test phase the newborns were fed with mothers milk, while the older children received a standardized protein supply (10 mg phenylalanine per kg) between six and eight hours after the exposure to tetrahydrobiopterine. The patients were classified as reacting to tetrahydrobiopterine if the phenylalanine concentration in the blood 15 hours after the exposure to tetrahydrobiopterine sank by at least 30% in comparison to the value prior to the intake of tetrahydrobiopterine.

[4] = system: persons with a deficiency in phenylalanine hydroxylase; assay: In vivo analysis of L-[13C]phenylalanine oxidation (13CO2 breath test); set-up: species or system human
Excerpt: In order to research the therapeutic effectiveness of tetrahydrobiopterine, one carries out a combined phenylalanine tetrahydrobiopterine stress test for diagnostic and analyzes the effect in vivo by means of determining the [^13C] phenylalanine oxidation rate and 38 persons with a deficiency in phenylalanine hydroxylase prior to and subsequent to the administration of tetrahydrobiopterine derivatives. The response to tetrahydrobiopterine was associated with certain genotypes, and we localized mutations on the basis of the structural models of the phenylalanine hydroxylase monomer and the therefrom derived protein misfolding.
The tests were carried out after a four hour fast in small children and an overnight fast in older children. Overall 6 mg L-[1^−13C] phenylalanine (Euriostop, Paris, France) per kilogram body weight were taken in orally. The tracer was dissolved in a 25% dextrose solution (2 mg per milliliter). Subsequently breath samples were taken over a period of 180 minutes and stored in air-free glass pipes until analysis by means of isotope mass spectroscopy (deltaS, Thermoquest, Bremen). The recapture of carbon-13 in the breath samples was calculated, as described by Treacy et al, wherein a total carbon dioxide of 300 mmol per hour×[…] of body surface was assumed. The ^13CO2-production was represented as a cumulative percentage rate of the calculated dose against time. The validity of the results in the newborn could have been influenced by the nutrition or the fact that the collection of the breath sample is more difficult with them than with older children. […] In cross section, less than one (older children) and less than two (newborns) of 27 sequential ^13CO2 measurements, which were obtained during the 180 minutes of an individual test, were not capable of interpretation.
Patients with various clinical stages of illness achieved basile cumulative ^13CO2 recapture rates, which respectively reflected their individual rest phenylalanine oxidation capacity (classic phenylketonurea, average value 1.4%; mild phenylketonurea, 3.1%; mild hyperphenylalaninamie, 5.6%; the healthy comparison group 9.0%). […] The rise was more clearly pronounced in patients with a mild phenylketonurea than in patients with a mild hyperphenylalaninamie (FIG. 2A). […] This is associated therewith that with longer therapies, also in the cases of hyperphenylalaninamie derivative, improvement by tetrahydrobiopterine could be achieved.

[5] = a patient with classic phenylketonurea

| SMILES | dose dependent undesired side effects [1] | phenylalanine concentration in blood during the pure cofactor treatment ([2]; diet replaced by tetrahydrobiopterine) [µmol/L] | daily phenylalanine tolerance with treatment (range) ([2]; oral 7.1-10.7 mg/kg body weight daily) | daily phenylalanine tolerance with treatment (average±SD) ([2]; oral 7.1-10.7 mg/kg body weight daily, 207±51.3 days) [mg/kg body weight] | serum residence time (Serum residence time) | phenylalanine concentration in the blood after exposure ([3]; 23 of the 27 patients reacting to tetrahydrobiopterine) | patients in whom tetrahydrobiopterine significantly decreased the phenylalanine content in the blood and improved the phenylalanine oxidation ([3]; 27 of the 31 patients with mild hyperphenylalaninamie (n=10) or mild phenylketonurea (n=21)) [%] | phenylalanine concentration in blood, change [3, 5] | patients satisfying the criteria of a strong response to tetrahydrobiopterine ([3]; classical phenylketonurea (n=7)) | patients with a response to tetrahydrobiopterine ([3]; mild hyperphenylalaninamie) | patients with a response to tetrahydrobiopterine ([3]; mild phenylketonurea) | phenylalanine concentration in the blood after exposure ([3]; patients which did not react) | total 13CO2 recapture after treatment ([4]; 10 mg/kg body weight, 24 hours, patients which had responded to the stress test) | persons reacting to tetrahydrobiopterine that achieved oxidation rates in a normal level ([4]; 27 persons reacting to tetrahydrobiopterine) | phenylalanine oxidation rate, change [4, 5] | patients which did not respond exhibiting a mild rise in phenylalanine oxidation ([4]; after short time therapy with tetrahydrobiopterine) |
| --- | --- | --- | --- | --- | --- | --- | --- | --- | --- | --- | --- | --- | --- | --- | --- | --- |
| C[C@H](O)[C@H](O)[C@H]1CNc2[nH]c(N)nc(=O)c2N1.Cl.Cl [BIOPTEN, sapropterinhydrochloride] | interference with sleep, polyurea and thin stool | – | – | – | – | – | – | – | – | – | – | – | – | – | – | – |
| C[C@H](O)[C@H](O)[C@H]1CNc2nc(N)[nH]c(=O)c2N1 [tetrahydrobiopterine, 5,6,7,8-tetrahydrobiopterine] | – | 378 ± 173 | 17.9-90 mg/kg body weight | 61.4±27.9 | approximately 8 hours | less than 200 μmol/l | 87 | slight increase | none | all ten | 17 of 21 | exceeded 400 μmol/l | rose significantly | 22 of the 27 | improvement | 8 of 11 |
